Structures are written as SMILES. A value given as a limit tells only on which side of the number the result lay.

CRTH2 receptor, sequence (Q9Y5Y4 whole entry): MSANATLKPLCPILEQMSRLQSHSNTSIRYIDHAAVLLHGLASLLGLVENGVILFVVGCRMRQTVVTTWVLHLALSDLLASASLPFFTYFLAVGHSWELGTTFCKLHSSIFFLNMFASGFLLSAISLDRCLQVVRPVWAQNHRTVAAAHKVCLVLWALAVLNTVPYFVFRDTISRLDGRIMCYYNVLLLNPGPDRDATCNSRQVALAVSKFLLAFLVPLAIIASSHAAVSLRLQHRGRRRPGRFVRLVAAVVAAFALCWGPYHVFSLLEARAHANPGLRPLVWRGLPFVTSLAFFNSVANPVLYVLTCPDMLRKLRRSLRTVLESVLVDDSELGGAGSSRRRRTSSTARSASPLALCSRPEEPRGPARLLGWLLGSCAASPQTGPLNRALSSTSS

The experiment addresses CRTH2 receptor (Homo sapiens (Human), UniProt Q9Y5Y4). In words: PathHunter CHO-K1 CRTH2 β-arrestin antagonist assay (PGD2 agonist). Particulars: PathHunter CHO-K1 CRTH2 β-arrestin cells; 30 min compound pre-incubation, then EC80 PGD2 for 90 min; chemiluminescence. The class given is cell-based. As to the method: PathHunter® CHO-K1 CRTH2 β-arrestin cells (DiscoverX, catalogue number 93-0291C2) grew under standard conditions, and were inoculated into a white-wall 384-well microplate at a density of 5,000 cells/well. 20 μL of Cell Plating Reagent 1 was used in each well. Before the test, the cells were incubated overnight at 37° C./5% CO2. A test compound was serially diluted in DMSO with a dilution factor of 3-fold to give 8 concentrations of the test compound. Shortly before the test, the serially diluted test compound was further diluted with the test buffer to 5 times of the test concentration. 5 μL of the further diluted test compound was added to the cells, and the cells were incubated for 30 min at 37° C. The concentration of the solvent was 1%. 5 μL of 6×EC80 agonist (PGD2) buffer was added to the cells, and the cells were incubated for 90 min at 37° C. Measured signals were generated by one-time addition of 15 μL (50% v/v) of PathHunter detection mixture reagent and subsequent one-hour incubation. The microplate was read through the chemiluminescent signals of PerkinElmer Envision™ reader. Biological activity of the test compound was analyzed by CBIS data analysis suite (ChemInnovation, CA), and was denoted as IC50 value.
By IC50 is commonly meant the concentration that gives 50% inhibition. The low end stands for greater potency, the high end for weaker potency. `Cc1c(Cc2cc3c(cc2F)S(=O)(=O)N(C)CC3(F)F)c2cc(F)ccc2n1CC(=O)O` [Example 78] showed an IC50 of 0.1 to 1 µM.

Consider `Cc1c(Cc2ccc3c(c2)CCS3(=O)=O)c2cc(F)ccc2n1CC(=O)O` [Example 43], for which the IC50 is less than 0.1 µM.

The compound `O=C(O)Cn1cc(Cc2ccc3c(c2)CCS3(=O)=O)c2cc(F)ccc21` [Example 60] returned an IC50 of 0.1 to 1 µM.

In turn, `Cc1c(C2=CS(=O)(=O)c3ncccc32)c2cc(F)ccc2n1CC(=O)O` [Example 11] had an IC50 of 0.1 to 1 µM.

Regarding `Cc1c(Cc2ccc3c(c2)C(F)C(F)(F)S3(=O)=O)c2cc(F)ccc2n1CC(=O)O` (stereo not drawn) [Example 46], the IC50 was in the range of 0.1 to 1 µM.

Consider `Cc1c(C2=CS(=O)(=O)c3cc(-c4ccncc4)ccc32)c2cc(F)ccc2n1CC(=O)O` [Example 21], for which the IC50 fell in the range of 0.1 to 1 µM.

`Cc1c(C2=CS(=O)(=O)c3cc(C(F)(F)F)ccc32)c2ccc(F)cc2n1CC(=O)O` [Example 20] came in with an IC50 of 0.1 to 1 µM.

`Cc1c(Cc2cccc3c2S(=O)(=O)CC3)c2cc(F)ccc2n1CC(=O)O` [Example 75] returned an IC50 of 0.1 to 1 µM.

With `Cc1c(Cc2ccc3c(c2)CCS3(=O)=O)c2ccccc2n1CC(=O)O` [Example 50], the IC50 was in the range of 0.1 to 1 µM.

The compound `Cc1c(C2=CS(=O)(=O)c3cc(C(F)(F)F)ccc32)c2ccc(Cl)cc2n1CC(=O)O` [Example 18] returned an IC50 of 0.1 to 1 µM.

`Cc1c(Cc2ccc3c(c2)N=CNS3(=O)=O)c2cc(F)ccc2n1CC(=O)O` [Example 66] came in with an IC50 of less than 0.1 µM.

Turning to `CC(=O)Nc1ccc2c(c1)c(Cc1ccc3c(c1)CCS3(=O)=O)c(C)n2CC(=O)O` [Example 59], the IC50 was greater than 1 µM.

The compound `Cc1c(C2CS(=O)(=O)c3ccccc32)c2cc(F)ccc2n1CC(=O)O` (stereo not drawn) [Example 2] returned an IC50 of 0.1 to 1 µM.

With `Cc1ccc2c(c1)c(C1=CS(=O)(=O)c3ccc(C(F)(F)F)cc31)c(C)n2CC(=O)O` [Example 15], the IC50 is 0.1 to 1 µM.

For `Cc1c(Cc2ccc3c(c2)CCS3(=O)=O)c2cc(Cl)ccc2n1CC(=O)O` [Example 51], the IC50 lay in the range of 0.1 to 1 µM.

As for `Cc1c(Cc2ccc3c(c2)S(=O)(=O)CC3)c2cc(F)ccc2n1CC(=O)O` [Example 74], the IC50 fell in the range of 0.1 to 1 µM.

Regarding `Cc1ccc2c(c1)c(C1=CS(=O)(=O)c3cc(C(F)(F)F)ccc31)c(C)n2CC(=O)O` [Example 19], the IC50 lay in the range of 0.1 to 1 µM.

`Cc1c(C(C)C2=CS(=O)(=O)c3ccccc32)c2cc(F)ccc2n1CC(=O)O` (stereo not drawn) [Example 45]: the IC50 was 0.1 to 1 µM.

As to `Cc1c(Cc2cc3c(cc2C(F)(F)F)S(=O)(=O)CC3)c2cc(F)ccc2n1CC(=O)O` [Example 61], the IC50 was in the range of 0.1 to 1 µM.

The compound `Cc1c(Cc2cc3c(cc2C(F)(F)F)S(=O)(=O)N(C)CC3(F)F)c2cc(F)ccc2n1CC(=O)O` [Example 64] gave an IC50 of 0.1 to 1 µM.

In turn, `Cc1c(Cc2ccc3c(c2)N(C)CN(C2CC2)S3(=O)=O)c2cc(F)ccc2n1CC(=O)O` [Example 70] came in with an IC50 of less than 0.1 µM.

Regarding `Cc1c(Cc2ccc3c(c2)CCS3(=O)=O)c2cc([N+](=O)[O-])ccc2n1CC(=O)O` [Example 57], the IC50 is 0.1 to 1 µM.

`Cc1c(Cc2cc3c(cc2C(F)(F)F)S(=O)(=O)CCC3(F)F)c2cc(F)ccc2n1CC(=O)O` [Example 63] came in with an IC50 of 0.1 to 1 µM.

As for `Cc1c(C2=CS(=O)(=O)c3ccc(Cl)cc32)c2ccc(C(F)(F)F)cc2n1CC(=O)O` [Example 38], the IC50 was 0.1 to 1 µM.

With `Cc1c(Cc2ccc3c(c2)CCS3(=O)=O)c2cc(Br)ccc2n1CC(=O)O` [Example 55], the IC50 was in the range of 0.1 to 1 µM.

`Cc1c(Cc2ccc3c(c2)C(F)(F)CCS3(=O)=O)c2ncccc2n1CC(=O)O` [Example 80] registered an IC50 of 0.1 to 1 µM.

As to `Cc1c(C2=CS(=O)(=O)c3ccccc32)c2ccc(F)cc2n1CC(=O)O` [Example 3], the IC50 was in the range of 0.1 to 1 µM.

On to `Cc1c(C2=CS(=O)(=O)c3ccncc32)c2cc(F)ccc2n1CC(=O)O` [Example 10], for which the IC50 fell in the range of 0.1 to 1 µM.

Compound `Cc1c(Cc2ccc3c(c2)CCS3(=O)=O)c2ccc(Cl)cc2n1CC(=O)O` [Example 54] came in with an IC50 greater than 1 µM.

`Cc1c(C2=CS(=O)(=O)c3cc(C(F)(F)F)ccc32)c2cc(Cl)ccc2n1CC(=O)O` [Example 17] showed an IC50 of 0.1 to 1 µM.

For `Cc1c(Cc2cccc3c2CCS3(=O)=O)c2cc(F)ccc2n1CC(=O)O` [Example 49], the IC50 was 0.1 to 1 µM.

The compound `Cc1c(Cc2ccc3c(c2)N(C)S(=O)(=O)C=C3)c2cc(F)ccc2n1CC(=O)O` [Example 48] gave an IC50 of 0.1 to 1 µM.

Compound `Cc1c(C2=CS(=O)(=O)c3ccccc32)c2cc(Cl)ccc2n1CC(=O)O` [Example 5] came in with an IC50 of 0.1 to 1 µM.

Compound `Cc1c(C2=CS(=O)(=O)c3ccc(C(F)(F)F)cc32)c2cc(F)ccc2n1CC(=O)O` [Example 12] showed an IC50 of 0.1 to 1 µM.

Compound `Cc1c(C2=CS(=O)(=O)c3ccc(C(F)(F)F)cc32)c2ccc(F)cc2n1CC(=O)O` [Example 16] had an IC50 of 0.1 to 1 µM.

The compound `Cc1c(Cc2ccc3c(n2)C(F)(F)CCS3(=O)=O)c2cc(F)ccc2n1CC(=O)O` [Example 65] had an IC50 of less than 0.1 µM.

`Cc1c(C2=CS(=O)(=O)c3ccc(Cl)cc32)c2cc(Cl)ccc2n1CC(=O)O` [Example 34] displayed an IC50 of 0.1 to 1 µM.

In turn, `Cc1c(C2=CS(=O)(=O)c3cc(S(C)(=O)=O)ccc32)c2cc(F)ccc2n1CC(=O)O` [Example 31] yielded an IC50 of less than 0.1 µM.

In turn, `Cc1c(Cc2ccc3c(c2)C=CS3(=O)=O)c2cc(F)ccc2n1CC(=O)O` [Example 44] had an IC50 of 0.1 to 1 µM.

Consider `Cc1ccc2c(c1)c(Cc1ccc3c(c1)CCS3(=O)=O)c(C)n2CC(=O)O` [Example 52], for which the IC50 fell in the range of 0.1 to 1 µM.

In turn, `Cc1c(C2=CS(=O)(=O)c3ccc(Cl)cc32)c2cc(F)ccc2n1CC(=O)O` [Example 33] yielded an IC50 of 0.1 to 1 µM.

In the case of `Cc1c(C2=CCCS(=O)(=O)c3ccccc32)c2cc(F)ccc2n1CC(=O)O` [Example 9], the IC50 was in the range of 0.1 to 1 µM.

For the origin of these results see patent US10800765B2, “Indole derivative used as CRTH2 inhibitor” (CHIA TAI TIANQING PHARMACEUTICAL GROUP CO., LTD., priority 2016, dated 2020).
